# Laboratory results as given in patent publication US20220354852A1, “TARGETING WNT SIGNALING FOR IMPROVED GLIOMA IMMUNOTHERAPY” (CITY OF HOPE, priority 2021, published 2022).
# Experiments:
# [1] = system: PBT138 patient tumor-derived glioma cells; test: In vitro cytotoxicity assay, IL13Rα2-CAR T cells ± ICG-001; assay type: cell-based, human
# Method: FIG. 2. Combinational strategy of CAR T cell-mediated tumor-antigen targeting with ICG-001 induced differentiation in glioma. […] (B) Cytotoxicity of HER2 CAR-T cells and tumor cells (1:5 ratio) was enhanced by ICG-001 at concentrations 1.25-5 μM. (C) Treatment of PBT138 patient glioma tumors with CAR T IL13Rα2+/−ICG-001.
# It has also been observed that ICG-001-induced differentiation of PBT017 and PBT138 (data not shown).
# [2] = system: PBT147 and PBT030 glioma cell lines; test: Global proteomic analysis of PBT147 and PBT030; assay type: cell-based, human; details: 72 h
# Method: FIG. 18. Proteomics analysis of PBT147 and PBT030 cell lines treated with ICG-001 (0-10 μM) for 72 h. (A) Protein density was calculated by the difference in log normalized levels for each protein between the four treated samples and the appropriate untreated sample. (B) Calculating the difference in log levels corresponds also to looking at the log of the fold changes in each protein. For both cell lines, the log fold-change for each protein at […] was plotted against the log fold-change at 10 μg. These plots are shown in A, with the points color-coded by cell line. This highlights a positive linear relationship between the log fold changes at 5 μg and 10 μg in both cell lines. […] The heatmap has been generated using Ward's method for clustering and the Manhattan (L1) distance. To highlight patterns of similar changes in regulation over cell lines and doses, rather than absolute differences in protein levels, quantile normalization has been used before creating the heatmap, with protein levels in each sample being normalized to that of a uniform distribution on −1≤x≤1.
# FIG. 19 is a table showing a proteomics analysis at 72 hours for two cell lines (PB147, PB030) treated with ICG-001 in vitro at three doses (0 μg, 5 μg, 10 μg). 1557 proteins were quantified.
# Proteomics data analysis. […] To examine the effect of the drug, the difference in log normalized levels for each protein between the four treated samples and the appropriate untreated sample was calculated, which corresponds to examining the log of the fold changes in each protein after treatment. For each of the two cell lines, the log fold change for each protein at 5 μg was plotted against the log fold change at 10 μg. These plots are shown in FIG. 17, with the points colored-coded by cell line. The line of (linear) regression is calculated and shown for each cell line.
# The heatmap has been constructed by using Ward's method for clustering and the Manhattan (L1) distance. To highlight patterns of similar changes in regulation over cell-lines and doses, rather than absolute differences in protein levels, quantile normalization has been used before creating the heatmap, with protein levels in each sample being normalized those of a uniform distribution on −1≤x≤1.
# Proteomics analyses of the PBT147 and PBT030 glioma cell lines after treatment with ICG-001 to elucidate targeted pathways in vitro. […]
# To examine the effect of ICG-001, the difference in log-normalized levels was calculated for each protein between the four treated samples and the appropriate untreated samples (which corresponds to looking at the log of the fold changes in each protein). […] The line of (linear) regression is calculated and plotted for each cell line. […]
# [3] = system: T cells derived from 3 donors; test: NanoString gene expression analysis of T cells treated with ICG-001; assay type: cell-based; details: ICG-001 2.5 or 5 μM
# Method: FIG. 27. T cells treated with ICG001 2.5 and 5 μM for 24 or 72 h. (A) CAR Ts mock and HER2 from one donor and mock CARs derived from two additional donors were plated on 6-well format plates and treated with ICG001 at concentrations 0-5 μM for 24 or 72 h. Cells were collected from each well, counted, and viability was determined. (B, C) NanoString analysis of T cells treated with ICG-001 to determine concentration-dependent metabolic changes. […] (E) Correlation of differential gene expression in all T cell lines combined at concentration of 2.5 and 5 μM.
# Antagonism of WNT/CBP/β-catenin signaling effects CAR T cells. Wnt signaling plays critical roles in T cell development and commitment (Li et al. 2019). Thus, the combined data derived from all T cell lines used and compared with untreated controls was analyzed for each T cell line.
# However, at a higher concentration of ICG-001, a higher degree of differential gene expression was observed. […]
# [4] = biological target: β-catenin/CBP interaction (Homo sapiens, UniProt Q92793); details: cited from earlier work
# Sequence of β-catenin/CBP interaction (Q92793 whole entry): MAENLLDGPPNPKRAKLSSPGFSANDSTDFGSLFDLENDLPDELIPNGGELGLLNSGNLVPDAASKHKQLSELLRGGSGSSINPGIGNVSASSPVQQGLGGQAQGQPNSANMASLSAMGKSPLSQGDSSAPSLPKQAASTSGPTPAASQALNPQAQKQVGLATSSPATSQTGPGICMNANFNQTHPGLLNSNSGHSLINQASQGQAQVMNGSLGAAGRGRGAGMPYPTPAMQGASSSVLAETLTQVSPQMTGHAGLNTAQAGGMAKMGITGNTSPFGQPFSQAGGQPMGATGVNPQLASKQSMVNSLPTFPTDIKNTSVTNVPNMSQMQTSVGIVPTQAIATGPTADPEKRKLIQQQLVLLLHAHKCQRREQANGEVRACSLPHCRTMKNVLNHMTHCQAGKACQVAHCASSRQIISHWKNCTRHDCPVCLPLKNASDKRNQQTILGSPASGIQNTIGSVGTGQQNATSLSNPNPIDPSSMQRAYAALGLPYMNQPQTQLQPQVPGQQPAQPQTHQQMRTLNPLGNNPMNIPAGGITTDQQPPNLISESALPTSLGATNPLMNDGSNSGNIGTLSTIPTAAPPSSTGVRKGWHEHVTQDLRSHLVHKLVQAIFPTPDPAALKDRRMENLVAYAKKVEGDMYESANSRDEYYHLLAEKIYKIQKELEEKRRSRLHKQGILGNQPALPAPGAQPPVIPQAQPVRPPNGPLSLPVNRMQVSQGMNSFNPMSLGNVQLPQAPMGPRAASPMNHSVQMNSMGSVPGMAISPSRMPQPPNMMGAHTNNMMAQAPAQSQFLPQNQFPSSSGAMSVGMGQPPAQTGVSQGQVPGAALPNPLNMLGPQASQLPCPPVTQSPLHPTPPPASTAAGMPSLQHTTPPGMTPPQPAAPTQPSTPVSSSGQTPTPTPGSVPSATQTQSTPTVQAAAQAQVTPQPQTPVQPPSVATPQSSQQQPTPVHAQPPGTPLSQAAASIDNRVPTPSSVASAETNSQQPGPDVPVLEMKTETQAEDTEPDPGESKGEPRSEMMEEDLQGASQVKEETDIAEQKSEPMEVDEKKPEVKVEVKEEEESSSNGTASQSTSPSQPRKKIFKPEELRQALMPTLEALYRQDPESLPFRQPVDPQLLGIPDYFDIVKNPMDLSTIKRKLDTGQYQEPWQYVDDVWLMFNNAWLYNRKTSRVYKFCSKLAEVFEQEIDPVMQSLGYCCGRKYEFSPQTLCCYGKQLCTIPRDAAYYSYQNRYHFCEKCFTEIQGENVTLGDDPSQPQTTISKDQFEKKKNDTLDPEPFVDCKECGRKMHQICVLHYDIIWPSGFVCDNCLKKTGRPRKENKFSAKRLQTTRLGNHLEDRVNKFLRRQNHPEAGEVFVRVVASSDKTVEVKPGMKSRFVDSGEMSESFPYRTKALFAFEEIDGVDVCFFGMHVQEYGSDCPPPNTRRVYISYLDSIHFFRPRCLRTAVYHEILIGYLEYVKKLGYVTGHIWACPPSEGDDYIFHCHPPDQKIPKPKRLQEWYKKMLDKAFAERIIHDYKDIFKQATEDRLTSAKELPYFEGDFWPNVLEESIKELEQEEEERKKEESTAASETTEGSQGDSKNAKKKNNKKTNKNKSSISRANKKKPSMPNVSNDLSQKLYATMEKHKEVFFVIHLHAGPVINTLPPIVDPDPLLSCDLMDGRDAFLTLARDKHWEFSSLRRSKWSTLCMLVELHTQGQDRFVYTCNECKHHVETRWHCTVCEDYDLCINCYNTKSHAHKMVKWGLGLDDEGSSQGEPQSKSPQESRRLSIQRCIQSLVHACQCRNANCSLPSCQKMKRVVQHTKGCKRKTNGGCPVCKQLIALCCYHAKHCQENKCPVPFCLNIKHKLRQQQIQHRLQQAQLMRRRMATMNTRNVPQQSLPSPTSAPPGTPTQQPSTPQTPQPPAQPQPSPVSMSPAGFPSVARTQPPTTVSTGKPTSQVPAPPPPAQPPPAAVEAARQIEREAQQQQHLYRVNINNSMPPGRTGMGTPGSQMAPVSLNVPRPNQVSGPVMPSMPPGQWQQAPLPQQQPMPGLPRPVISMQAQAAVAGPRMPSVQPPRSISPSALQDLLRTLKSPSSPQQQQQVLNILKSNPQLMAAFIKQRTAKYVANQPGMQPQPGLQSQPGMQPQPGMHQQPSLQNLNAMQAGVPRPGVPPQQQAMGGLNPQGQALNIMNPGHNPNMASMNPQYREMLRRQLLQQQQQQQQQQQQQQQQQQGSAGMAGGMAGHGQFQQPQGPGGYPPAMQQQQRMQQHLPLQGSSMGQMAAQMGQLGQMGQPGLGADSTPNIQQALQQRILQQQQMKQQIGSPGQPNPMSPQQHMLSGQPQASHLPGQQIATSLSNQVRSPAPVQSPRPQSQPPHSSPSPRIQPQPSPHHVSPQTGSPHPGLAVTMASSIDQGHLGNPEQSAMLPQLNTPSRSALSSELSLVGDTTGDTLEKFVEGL
compound,measurement,setting,value
O=C1[C@H](Cc2ccc(O)cc2)N2C(=O)CCN(C(=O)NCc3ccccc3)[C@H]2CN1Cc1cccc2ccccc12 [ICG-001],"tumor cell killing, ICG-001 in combination with IL13Rα2-CAR T cells",[1],synergistic killing
same,"dose effect on protein fold change, PBT030 versus PBT147",[2]; 5 μM versus 10 μM,significantly greater in PBT030 than PBT147
same,HA and LDHA protein expression,"[2]; ICG-001 0, 5, and 10 μM",loss
same,PKM1 protein expression,"[2]; ICG-001 0, 5, and 10 μM",increased
same,protein translation,"[2]; ICG-001 0, 5, and 10 μM",overall increase in protein translation
same,T cell differentiation,[3],directed T cell differentiation into multiple types of effector and memory T cells
same,"expression of DPP4, CD48, CEBPB, B2M, ICOSLG, CD81, CXCR4, XBP1, NFIL3, and others in T cells",[3]; 24 or 72 h,upregulation of key genes
same,blockade of β-catenin/CBP versus β-catenin/p300 interaction,[4],selectively blocks the β-catenin/CBP interaction without interfering with the β-catenin/p300 interaction
